{"source": "patent US20030235877A1", "about": "“Conjugates of haptens to beta-lactam derivatives and their use for detecting and/or quantifying haptens in solution and device for implementation thereof” (priority 1996, published 2003)"}
{"system": "CC1(C)SC2C(NC(=O)C(C(=O)OC3CCC4C5CCC6=CC(=O)CCC6C5CCC34C)c3ccccc3)C(=O)N2C1C(=O)O", "experiment": "purified protein, by the assay type", "details": "other: conjugate; type C β-lactamase P99", "units": {"Km": "µM", "kcat": "s⁻¹"}}
{"compound": "type C β-lactamase from Enterobacter cloacae P99 (Enterobacter cloacae)", "Km": 0.074, "kcat": 0.25}
{"system": "CC(=O)C1CCC2C3CCC4=CC(=O)CCC4(C)C3C(OC(=O)c3ccc(-c4noc(C)c4C(=O)NC4C(=O)N5C4SC(C)(C)C5C(=O)O)cc3)CC12C", "experiment": "purified protein, by the assay type", "details": "other: conjugate; type C β-lactamase P99", "units": {"Km": "µM", "kcat": "s⁻¹"}}
{"compound": "type C β-lactamase from Enterobacter cloacae P99 (Enterobacter cloacae)", "Km": 0.0017, "kcat": 0.01}
{"system": "O=C(Cc1cccs1)N[C@@H]1C(=O)N2C(C(=O)O)=C(/C=C/c3ccc([N+](=O)[O-])cc3[N+](=O)[O-])CS[C@H]12", "experiment": "purified protein, by the assay type", "details": "other: reporter substrate; type C β-lactamase P99", "units": {"Km": "µM", "kcat": "s⁻¹"}}
{"compound": "type C β-lactamase from Enterobacter cloacae P99 (Enterobacter cloacae)", "Km": 25, "kcat": 780}
{"target": "T1, penicillin detector of the Beta-Star® Test (Bacillus licheniformis, UniProt P12287)", "T1 construct": "purchased UCB, Belgium (BetaSTAR kit)", "T1 sequence (P12287 346-601)": "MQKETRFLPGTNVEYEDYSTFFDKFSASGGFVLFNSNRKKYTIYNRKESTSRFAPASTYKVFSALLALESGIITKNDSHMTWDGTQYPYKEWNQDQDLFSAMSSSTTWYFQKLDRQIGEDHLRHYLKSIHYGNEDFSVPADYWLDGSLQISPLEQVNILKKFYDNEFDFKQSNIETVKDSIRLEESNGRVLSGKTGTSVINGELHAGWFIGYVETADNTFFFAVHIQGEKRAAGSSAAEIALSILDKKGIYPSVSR", "experiment": "Ka (apparent second-order rate constant for acyl enzyme formation), calculated using the penicillin detector of the Beta-Star Test", "format": "binding", "details": "Ka=k2/K", "from_the_text": "(§1) The particular mode of conjugation claimed in the present invention guarantees to maintain kinetic parameters (Km, Ki, kcat and Ka=k2/K, where Km is the enzyme Michaelis-Menten constant, Ki is the inhibitor-enzyme complex dissociation constant, kcat the catalytic constant and Ka the apparent second-order rate constant for acyl enzyme formation respectively) toward β-lactamases and penicillin detectors, which are essentially the same as those of common penicillins.\n^□(Column 10): calculated using the penicillin detector of the Beta-Star® Test\nThe detector showing the best affinity for the progesterone benzylpenicillinate conjugate is the polypeptide included in the Beta-star® kit. This genetic engineering peptide has kept a very high affinity for benzylpenicillin but has no enzymatic activity. It is thus coupled to colored particles for allowing sensitive detection."}
{"compound": "CC1(C)SC2C(NC(=O)Cc3ccc(CC(=O)OC4CCC5C6CCc7cc(O)ccc7C6CCC45C)cc3)C(=O)N2C1C(=O)O", "note": "(stereo not drawn) [Conjugate 32]", "Ka": "4.8 ± 3.5 × 10^−6 L.M^−1"}
{"compound": "CC1(C)SC2C(NC(=O)Cc3ccc(CC(=O)OC4CCC5C6CCc7cc(O)ccc7C6CCC45C)cc3)C(=O)N2C1C(=O)O", "note": "(stereo not drawn) [Conjugate 30]", "Ka": "3.8 ± 2.9 × 10^−6 L.M^−1"}
{"compound": "CC(=O)C1CCC2C1CC(OC(C)Cc1ccc(CC(=O)NC3C(=O)N4C3SC(C)(C)C4C(=O)O)cc1)C1C3CCC(=O)C=C3CCC21", "note": "(stereo not drawn) [Conjugate 2]", "Ka": "4.6 ± 3.0 × 10^−6 L.M^−1"}
{"compound": "CC1(C)SC2C(NC(=O)Cc3ccc(CC(=O)OC4CCC5C6CCC7=CC(=O)CCC7(C)C6CCC45C)cc3)C(=O)N2C1C(=O)O", "note": "(stereo not drawn) [Conjugate 31]", "Ka": "4.1 ± 3.2 × 10^−6 L.M^−1"}
{"target": "T2, β-lactamase of Enterobacter cloacae P99 (Enterobacter cloacae, UniProt P05364)", "T2 construct": "Class C β-lactamase as that extracted from Enterobacter cloacae P99; host or cells: Enterobacter cloacae P99 (enzyme described as extracted from this strain)", "T2 sequence (P05364 21-381)": "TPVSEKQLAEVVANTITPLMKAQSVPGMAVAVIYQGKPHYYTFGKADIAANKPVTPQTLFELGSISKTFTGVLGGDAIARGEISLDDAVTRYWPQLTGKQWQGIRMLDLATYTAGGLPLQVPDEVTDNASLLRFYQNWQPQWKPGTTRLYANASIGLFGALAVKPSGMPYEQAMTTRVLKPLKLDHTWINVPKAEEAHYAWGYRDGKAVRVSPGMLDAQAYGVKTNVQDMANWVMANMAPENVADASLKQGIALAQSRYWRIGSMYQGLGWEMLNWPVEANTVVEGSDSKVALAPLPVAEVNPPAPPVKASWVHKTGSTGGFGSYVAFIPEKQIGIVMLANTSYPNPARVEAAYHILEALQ", "experiment": "Ki of conjugates, calculated using the β-lactamase of Enterobacter cloacae P99", "format": "biochemical", "details": "not given", "from_the_text": "as §1\n^x(Column 9): calculated using the β-lactamase of Enterobacter cloacae P99", "units": {"Ki": "nM"}}
{"compound": "Cc1onc(-c2ccc(C(=O)OC3CCC4C5CCc6cc(O)ccc6C5CCC34C)cc2)c1C(=O)NC1C(=O)N2C1SC(C)(C)C2C(=O)O", "note": "(stereo not drawn) [Conjugate 4]", "Ki": "24 ± 26"}
{"compound": "Cc1onc(-c2ccc(C(=O)NCCCCC(=O)OC3CCC4C5CCC6=CC(=O)CCC6(C)C5CCC34C)cc2)c1C(=O)NC1C(=O)N2C1SC(C)(C)C2C(=O)O", "note": "(stereo not drawn) [Conjugate 9]", "Ki": "17 ± 21"}
{"compound": "Cc1onc(-c2ccc(NC(=O)CCOC3CCC4C5CCC6=CC(=O)CCC6(C)C5CCC34C)cc2)c1C(=O)NC1C(=O)N2C1SC(C)(C)C2C(=O)O", "note": "(stereo not drawn) [Conjugate 20]", "Ki": "29 ± 27"}
{"compound": "Cc1onc(-c2ccc(OCCOC3CCC4C5CCc6cc(O)ccc6C5CCC34C)c(Cl)c2)c1C(=O)NC1C(=O)N2C1SC(C)(C)C2C(=O)O", "note": "(stereo not drawn) [Conjugate 10]", "Ki": "14 ± 17"}
{"compound": "Cc1onc(-c2ccc(OC(=O)CCC(=O)OC3CCC4C5CCC6=CC(=O)CCC6C5CCC34C)cc2)c1C(=O)NC1C(=O)N2C1SC(C)(C)C2C(=O)O", "note": "(stereo not drawn) [Conjugate 19]", "Ki": "21 ± 24"}
{"compound": "CC(=O)C1CCC2C3CCC4=CC(=O)CCC4(C)C3C(OC(=O)c3ccc(-c4noc(C)c4C(=O)NC4C(=O)N5C4SC(C)(C)C5C(=O)O)cc3)CC12C", "note": "(stereo not drawn) [Conjugate 7]", "Ki": "19 ± 27"}
{"compound": "CC(=O)C1CCC2C3CCC4=CC(=O)CCC4(C)C3C(OCCCNC(=O)c3ccc(-c4noc(C)c4C(=O)NC4C(=O)N5C4SC(C)(C)C5C(=O)O)cc3)CC12C", "note": "(stereo not drawn) [Conjugate 17]", "Ki": "21 ± 24"}
{"compound": "Cc1onc(-c2ccc(C(=O)NCCCOC3CCC4C5CCC6=CC(=O)CCC6(C)C5CCC34C)cc2)c1C(=O)NC1C(=O)N2C1SC(C)(C)C2C(=O)O", "note": "(stereo not drawn) [Conjugate 16]", "Ki": "26 ± 27"}
{"compound": "Cc1onc(-c2ccc(NC(=O)CCOC3CCC4C5CCC6=CC(=O)CCC6C5CCC34C)cc2)c1C(=O)NC1C(=O)N2C1SC(C)(C)C2C(=O)O", "note": "(stereo not drawn) [Conjugate 21]", "Ki": "30 ± 33"}
{"compound": "Cc1onc(-c2ccc(C(=O)NCCCCC(=O)OC3CCC4C5CCC6=CC(=O)CCC6C5CCC34C)cc2)c1C(=O)NC1C(=O)N2C1SC(C)(C)C2C(=O)O", "note": "(stereo not drawn) [Conjugate 8]", "Ki": "23 ± 18"}
{"compound": "Cc1onc(-c2ccc(OCCOC3CCC4C5CCC6=CC(=O)CCC6C5CCC34C)c(Cl)c2)c1C(=O)NC1C(=O)N2C1SC(C)(C)C2C(=O)O", "note": "(stereo not drawn) [Conjugate 11]", "Ki": "12 ± 14"}
{"compound": "Cc1onc(-c2ccc(C(=O)OC3CCC4C5CCC6=CC(=O)CCC6C5CCC34C)cc2)c1C(=O)NC1C(=O)N2C1SC(C)(C)C2C(=O)O", "note": "(stereo not drawn) [Conjugate 5]", "Ki": "18 ± 23"}
{"compound": "CC(=O)C1CCC2C3CCC4=CC(=O)CCC4(C)C3C(OC(=O)CCOc3ccc(-c4noc(C)c4C(=O)NC4C(=O)N5C4SC(C)(C)C5C(=O)O)cc3)CC12C", "note": "(stereo not drawn) [Conjugate 28]", "Ki": "26 ± 26"}
{"compound": "Cc1onc(-c2ccc(OCCC(=O)OC3CCC4C5CCC6=CC(=O)CCC6C5CCC34C)cc2)c1C(=O)NC1C(=O)N2C1SC(C)(C)C2C(=O)O", "note": "(stereo not drawn) [Conjugate 25]", "Ki": "28 ± 31"}
{"compound": "Cc1onc(-c2ccc(C(=O)NCCCOC3CCC4C5CCc6cc(O)ccc6C5CCC34C)cc2)c1C(=O)NC1C(=O)N2C1SC(C)(C)C2C(=O)O", "note": "(stereo not drawn) [Conjugate 14]", "Ki": "18 ± 23"}
{"compound": "Cc1onc(-c2ccc(OC(=O)CCC(=O)OC3CCC4C5CCC6=CC(=O)CCC6(C)C5CCC34C)cc2)c1C(=O)NC1C(=O)N2C1SC(C)(C)C2C(=O)O", "note": "(stereo not drawn) [Conjugate 18]", "Ki": "23 ± 19"}
{"compound": "Cc1onc(-c2ccc(NC(=O)CCOC3CCC4C5CCc6cc(O)ccc6C5CCC34C)cc2)c1C(=O)NC1C(=O)N2C1SC(C)(C)C2C(=O)O", "note": "(stereo not drawn) [Conjugate 23]", "Ki": "19 ± 21"}
{"compound": "CC(=O)C1CCC2C3CCC4=CC(=O)CCC4(C)C3C(OCCOc3ccc(-c4noc(C)c4C(=O)NC4C(=O)N5C4SC(C)(C)C5C(=O)O)cc3Cl)CC12C", "note": "(stereo not drawn) [Conjugate 13]", "Ki": "20 ± 21"}
{"compound": "Cc1onc(-c2ccc(OCCC(=O)OC3CCC4C5CCc6cc(O)ccc6C5CCC34C)cc2)c1C(=O)NC1C(=O)N2C1SC(C)(C)C2C(=O)O", "note": "(stereo not drawn) [Conjugate 29]", "Ki": "21 ± 24"}
{"compound": "Cc1onc(-c2ccc(OCCC(=O)OC3CCC4C5CCC6=CC(=O)CCC6(C)C5CCC34C)cc2)c1C(=O)NC1C(=O)N2C1SC(C)(C)C2C(=O)O", "note": "(stereo not drawn) [Conjugate 24]", "Ki": "21 ± 26"}
{"compound": "Cc1onc(-c2ccc(C(=O)OC3CCC4C5CCC6=CC(=O)CCC6(C)C5CCC34C)cc2)c1C(=O)NC1C(=O)N2C1SC(C)(C)C2C(=O)O", "note": "(stereo not drawn) [Conjugate 6]", "Ki": "22 ± 19"}
{"compound": "Cc1onc(-c2ccc(C(=O)NCCCOC3CCC4C5CCC6=CC(=O)CCC6C5CCC34C)cc2)c1C(=O)NC1C(=O)N2C1SC(C)(C)C2C(=O)O", "note": "(stereo not drawn) [Conjugate 15]", "Ki": "28 ± 22"}
{"compound": "Cc1onc(-c2ccc(OCCOC3CCC4C5CCC6=CC(=O)CCC6(C)C5CCC34C)c(Cl)c2)c1C(=O)NC1C(=O)N2C1SC(C)(C)C2C(=O)O", "note": "(stereo not drawn) [Conjugate 12]", "Ki": "15 ± 16"}
